Source: the Kinase Knowledgebase extract (Sharma et al. 2016)

Biological target: CDK2 (UniProt P24941)
Experiment: Enzyme Assay
Conditions: for inhibition: concentration not given here

CN(CCO)S(=O)(=O)c1ccc(Nc2nc(N)c(C(=O)c3c(F)cccc3F)s2)cc1 was tested. Which inhibition did it give?
Its inhibition is 28%.

How did the inhibition turn out when CCN(CC)CCCN(C)S(=O)(=O)c1ccc(Nc2nc(N)c(C(=O)c3c(F)cccc3F)s2)cc1 was run?
The inhibition was 21%.

Which inhibition does the source give for CN(CC(O)CO)S(=O)(=O)c1ccc(Nc2nc(N)c(C(=O)c3c(F)cccc3F)s2)cc1 (stereo unspecified) here?
Its inhibition is 15%.

Which inhibition does the source give for CN(C)CCN(C)S(=O)(=O)c1ccc(Nc2nc(N)c(C(=O)c3c(F)cccc3F)s2)cc1 here?
Its inhibition is 26%.

With C=CCN1CCN(S(=O)(=O)c2ccc(Nc3nc(N)c(C(=O)c4c(F)cccc4F)s3)cc2)CC1 as the compound, how does the inhibition read?
Its inhibition is 6%.

How did the inhibition turn out when Nc1nc(Nc2ccc(S(=O)(=O)N3CCN(CCOCCO)CC3)cc2)sc1C(=O)c1c(F)cccc1F was run?
The inhibition was -1%.

With COCCN(C)S(=O)(=O)c1ccc(Nc2nc(N)c(C(=O)c3c(F)cccc3F)s2)cc1 as the compound, how does the inhibition read?
Its inhibition is 4%.

How did the inhibition turn out when CN1CCC(N(C)S(=O)(=O)c2ccc(Nc3nc(N)c(C(=O)c4c(F)cccc4F)s3)cc2)C1 (stereo unspecified) was run?
The inhibition was 22%.

Which inhibition does the source give for CCN(CC)CCN(C)S(=O)(=O)c1ccc(Nc2nc(N)c(C(=O)c3c(F)cccc3F)s2)cc1 here?
The inhibition was 27%.

With Nc1nc(Nc2ccc(S(=O)(=O)N3CCN(CC(=O)N4CCCC4)CC3)cc2)sc1C(=O)c1c(F)cccc1F as the compound, how does the inhibition read?
Its inhibition is 14%.

Which Ki does the source give for CCOC(=O)CNS(=O)(=O)c1ccc(Nc2nc(N)c(C(=O)c3c(F)cccc3F)s2)cc1 here?
Its Ki is 4.9 nM.

For Nc1nc(Nc2ccc(S(=O)(=O)N3CCSCC3)cc2)sc1C(=O)c1c(F)cccc1F, which inhibition is on record?
The inhibition was 23%.

For Nc1nc(Nc2ccc(S(=O)(=O)N3CCN(c4ccc(F)cc4)CC3)cc2)sc1C(=O)c1c(F)cccc1F, which inhibition is on record?
Its inhibition is 37%.

Nc1nc(Nc2ccc(S(=O)(=O)NCc3cc4ccccc4o3)cc2)sc1C(=O)c1c(F)cccc1F was tested. Which Ki did it give?
The Ki was 4.6 nM.

Which Ki does the source give for Cc1cc(F)c(C(=O)c2sc(Nc3ccc(S(=O)(=O)NCc4ccc(C)o4)cc3)nc2N)c(F)c1 here?
The Ki was under 10 nM.

For CC(C)(O)CCCCNS(=O)(=O)c1ccc(Nc2nc(N)c(C(=O)c3c(F)cccc3F)s2)cc1, which Ki is on record?
The Ki was 0.48 nM.

With CN(CCc1ccccc1)S(=O)(=O)c1ccc(Nc2nc(N)c(C(=O)c3c(F)cccc3F)s2)cc1 as the compound, how does the inhibition read?
The inhibition was 9%.

For CCCOCCNS(=O)(=O)c1ccc(Nc2nc(N)c(C(=O)c3c(F)cccc3F)s2)cc1, which Ki is on record?
The Ki was under 5 nM.

For Cn1cncc1CNS(=O)(=O)c1ccc(Nc2nc(N)c(C(=O)c3c(F)cccc3F)s2)cc1, which Ki is on record?
The Ki was 6.9 nM.

Which inhibition does the source give for NC(=O)C1CCN(S(=O)(=O)c2ccc(Nc3nc(N)c(C(=O)c4c(F)cccc4F)s3)cc2)CC1 here?
Its inhibition is 40%.

How did the inhibition turn out when COC(=O)CN(C)S(=O)(=O)c1ccc(Nc2nc(N)c(C(=O)c3c(F)cccc3F)s2)cc1 was run?
Its inhibition is 18%.

With CN(CCc1ccncc1)S(=O)(=O)c1ccc(Nc2nc(N)c(C(=O)c3c(F)cccc3F)s2)cc1 as the compound, how does the inhibition read?
The inhibition was 19%.

With CN(CCC#N)S(=O)(=O)c1ccc(Nc2nc(N)c(C(=O)c3c(F)cccc3F)s2)cc1 as the compound, how does the inhibition read?
The inhibition was 27%.

Which inhibition does the source give for CN(CCc1ccccn1)S(=O)(=O)c1ccc(Nc2nc(N)c(C(=O)c3c(F)cccc3F)s2)cc1 here?
Its inhibition is 16%.

Which inhibition does the source give for N#CCCN(C1CC1)S(=O)(=O)c1ccc(Nc2nc(N)c(C(=O)c3c(F)cccc3F)s2)cc1 here?
The inhibition was 8%.

Which inhibition does the source give for CN(CCCCCCO)S(=O)(=O)c1ccc(Nc2nc(N)c(C(=O)c3c(F)cccc3F)s2)cc1 here?
The inhibition was 28%.

CCN(CCO)S(=O)(=O)c1ccc(Nc2nc(N)c(C(=O)c3c(F)cccc3F)s2)cc1 was tested. Which inhibition did it give?
Its inhibition is 24%.

For Nc1nc(Nc2ccc(S(=O)(=O)N3CCOCC3)cc2)sc1C(=O)c1c(F)cccc1F, which inhibition is on record?
The inhibition was 27%.

CC(C)CCCCNS(=O)(=O)c1ccc(Nc2nc(N)c(C(=O)c3c(F)cccc3F)s2)cc1 was tested. Which Ki did it give?
Its Ki is 3.7 nM.

With COCCN(CCOC)S(=O)(=O)c1ccc(Nc2nc(N)c(C(=O)c3c(F)cccc3F)s2)cc1 as the compound, how does the inhibition read?
Its inhibition is 8%.

Nc1nc(Nc2ccc(S(=O)(=O)NCCCc3ccccc3)cc2)sc1C(=O)c1c(F)cccc1F was tested. Which Ki did it give?
The Ki was 3.6 nM.

Which inhibition does the source give for CN1CCC(N(C)S(=O)(=O)c2ccc(Nc3nc(N)c(C(=O)c4c(F)cccc4F)s3)cc2)CC1 here?
The inhibition was 9%.

How did the inhibition turn out when Nc1nc(Nc2ccc(S(=O)(=O)N3CCC(CCO)CC3)cc2)sc1C(=O)c1c(F)cccc1F was run?
Its inhibition is 21%.

CN(CCC1OCCO1)S(=O)(=O)c1ccc(Nc2nc(N)c(C(=O)c3c(F)cccc3F)s2)cc1 was tested. Which inhibition did it give?
The inhibition was 20%.

Nc1nc(Nc2ccc(S(=O)(=O)NCCc3cccc(Cl)c3)cc2)sc1C(=O)c1c(F)cccc1F was tested. Which Ki did it give?
The Ki was under 10 nM.

Nc1nc(Nc2ccc(S(=O)(=O)N3CCCC(CO)C3)cc2)sc1C(=O)c1c(F)cccc1F (stereo unspecified) was tested. Which inhibition did it give?
Its inhibition is 30%.

Which Ki does the source give for Nc1nc(Nc2ccc(S(=O)(=O)NCC3CCNCC3)cc2)sc1C(=O)c1c(F)cccc1F here?
Its Ki is 13 nM.

Nc1nc(Nc2ccc(S(=O)(=O)N(CCO)CCO)cc2)sc1C(=O)c1c(F)cccc1F was tested. Which inhibition did it give?
The inhibition was -1%.

How did the inhibition turn out when CN1CCN(S(=O)(=O)c2ccc(Nc3nc(N)c(C(=O)c4c(F)cccc4F)s3)cc2)CC1 was run?
Its inhibition is 18%.

Which inhibition does the source give for CN(Cc1cccnc1)S(=O)(=O)c1ccc(Nc2nc(N)c(C(=O)c3c(F)cccc3F)s2)cc1 here?
Its inhibition is 12%.

How did the inhibition turn out when Nc1nc(Nc2ccc(S(=O)(=O)N3CCN(CCN4CCOCC4)CC3)cc2)sc1C(=O)c1c(F)cccc1F was run?
Its inhibition is 11%.
